This note sets out measurements from patent US20240239792A1, “MODULATORS OF BCL-2 OR BCL-2/BCL-XL AND USES THEREOF” (APPICINE THERAPEUTICS (HK) LIMITED, priority 2021, published 2024).

For one assay, the target named is T1, BCL-2 (Homo sapiens, UniProt P10415).
T1 construct: purchased Cisbio 63ADK000CB01PEG
Put plainly: HTRF BCL-2/BAK assay (Cisbio). The assay is classed as binding. The settings on record: recombinant human Tag1-BCL-2 2 nM, Tag2-BAK 10 nM. The method, then: (§1) Then the pre-mixed anti-Tag1-Eu^3+ and anti-tag2-XL665 were added to the plate and further incubated at room temperature for another 2 hours. The signals ([…]) were read on Envision 2104 instrument. The IC50 for each compound was derived from fitting the signal of 665/615 nM to the increasing compound concentration.
(§2) Using the above assays, the following compounds were tested.

For a further assay, the system named is DOHH2 cells. Put plainly: CellTiter-Glo cell proliferation assay, DOHH2 cells. In kind it is cell-based. The settings on record: Homo sapiens, DOHH-2, 72 hours. A digest of the protocol:
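DOHH2 cells seeded in DMEM + 10% FBS, exposed to serially diluted compound for 72 h at 37 °C, 5% CO2. Viability read by CellTiter-Glo luminescence; GI50 calculated.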

Another assay deals with T2, BCL-XL (Homo sapiens, UniProt Q07817).
T2 construct: purchased Cisbio 63ADK000CB04PEG
As to the kind of experiment: HTRF BCL-XL/BAK assay (Cisbio). The assay is classed as binding. The settings on record: recombinant human Tag1-BCL-XL 2 nM, Tag2-BAK 5 nM. The procedure: as §1, §2

SMILES strings stand for the structures. pIC50: −log10 of the molar value.

T1 sequence (P10415 whole entry): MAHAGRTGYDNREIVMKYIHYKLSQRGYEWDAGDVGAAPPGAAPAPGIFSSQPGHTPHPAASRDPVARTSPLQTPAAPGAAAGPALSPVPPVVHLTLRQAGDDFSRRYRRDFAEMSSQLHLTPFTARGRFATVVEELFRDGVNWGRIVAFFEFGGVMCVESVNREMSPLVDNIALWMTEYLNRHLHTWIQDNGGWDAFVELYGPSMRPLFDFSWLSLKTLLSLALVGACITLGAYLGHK
T2 sequence (Q07817 whole entry): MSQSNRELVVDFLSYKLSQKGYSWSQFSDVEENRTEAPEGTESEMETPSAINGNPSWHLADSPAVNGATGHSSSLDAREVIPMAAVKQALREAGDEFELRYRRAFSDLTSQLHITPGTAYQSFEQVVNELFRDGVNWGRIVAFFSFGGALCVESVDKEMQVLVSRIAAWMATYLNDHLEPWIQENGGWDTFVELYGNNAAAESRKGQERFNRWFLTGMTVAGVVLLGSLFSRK

As for `O=C(NS(=O)(=O)c1ccc(NCC2CCOCC2)c([N+](=O)[O-])c1)c1ccc(N2CCN(C3CCCCc4ccc(F)cc43)CC2)cc1Oc1cnc2[nH]ccc2c1` (stereo not drawn) [Compound 37, 2-((1H-pyrrolo[2,3-b]pyridin-5-yl)oxy)-4-(4-(3-fluoro-6,7,8,9-tetrahydro-5H-benzo[7]annulen-5-yl)piperazin-1-yl)-N-((3-nitro-4-(((tetrahydro-2H-pyran-4-yl)methyl)amino)phenyl)sulfonyl)benzamide], the pIC50 at BCL-2 was above 7.70; at BCL-XL, 5.70 to 6.70. In addition, the GI50 with DOHH2 cells is 50 to 500 nM.

In the case of `O=C(NS(=O)(=O)c1ccc(NCC2CCC3(CC2)COC3)c([N+](=O)[O-])c1)c1ccc(N2CCN(C3CCCCc4c(Cl)cccc43)CC2)cc1Oc1cnc2[nH]ccc2c1` (stereo not drawn) [Compound 38, 2-((1H-pyrrolo[2,3-b]pyridin-5-yl)oxy)-N-((4-(((2-oxaspiro[3.5]nonan-7-yl)methyl)amino)-3-nitrophenyl)sulfonyl)-4-(4-(1-chloro-6,7,8,9-tetrahydro-5H-benzo[7]annulen-5-yl)piperazin-1-yl)benzamide], the figures for the pIC50 on BCL-2 and at BCL-XL were above 7.70 and 5.70 to 6.70, respectively. For the same molecule, the GI50 in the assay with DOHH2 cells was below 50 nM.

`CC(=O)N1CCN(CCNc2ccc(S(=O)(=O)NC(=O)c3ccc(N4CCN(C5CCCCc6c(Cl)cccc65)CC4)cc3Oc3cnc4[nH]ccc4c3)cc2[N+](=O)[O-])CC1` (stereo not drawn) [Compound 39, 2-((1H-pyrrolo[2,3-b]pyridin-5-yl)oxy)-N-((4-((2-(4-acetylpiperazin-1-yl)ethyl)amino)-3-nitrophenyl)sulfonyl)-4-(4-(1-chloro-6,7,8,9-tetrahydro-5H-benzo[7]annulen-5-yl)piperazin-1-yl)benzamide]: the values for the pIC50 at BCL-2 and at BCL-XL were above 7.70 and 6.70 to 7.70, respectively. In the assay on DOHH2 cells, the GI50 is below 50 nM.

As to `O=C(NS(=O)(=O)c1ccc(NCC2CCOCC2)c([N+](=O)[O-])c1)c1ccc(N2CCN([C@@H]3CCCCc4c(O)cccc43)CC2)cc1Oc1cnc2[nH]ccc2c1` [Compound 40, (R)-2-((1H-pyrrolo[2,3-b]pyridin-5-yl)oxy)-4-(4-(1-hydroxy-6,7,8,9-tetrahydro-5H-benzo[7]annulen-5-yl)piperazin-1-yl)-N-((3-nitro-4-(((tetrahydro-2H-pyran-4-yl)methyl)amino)phenyl)sulfonyl)benzamide], the pIC50 on BCL-2 is 6.70 to 7.70; on BCL-XL, below 5.70. The same molecule came in with a GI50 with DOHH2 cells of 500 to 5000 nM.

With `O=C(NS(=O)(=O)c1ccc(NCCN2CC3CC2CO3)c([N+](=O)[O-])c1)c1ccc(N2CCN(C3CCCCc4c(Cl)cccc43)CC2)cc1Oc1cnc2[nH]ccc2c1` (stereo not drawn) [Compound 41, 2-((1H-pyrrolo[2,3-b]pyridin-5-yl)oxy)-N-((4-((2-(2-oxa-5-azabicyclo[2.2.1]heptan-5-yl)ethyl)amino)-3-nitrophenyl)sulfonyl)-4-(4-(1-chloro-6,7,8,9-tetrahydro-5H-benzo[7]annulen-5-yl)piperazin-1-yl)benzamide], the pIC50 at BCL-2 and at BCL-XL was above 7.70 each time. Moreover, the GI50 in the assay on DOHH2 cells lay in the range of 50 to 500 nM.

With `O=C(NS(=O)(=O)c1ccc(NCCN2CCC3(CC2)COC3)c([N+](=O)[O-])c1)c1ccc(N2CCN(C3CCCCc4c(Cl)cccc43)CC2)cc1Oc1cnc2[nH]ccc2c1` (stereo not drawn) [Compound 42, 2-((1H-pyrrolo[2,3-b]pyridin-5-yl)oxy)-N-((4-((2-(2-oxa-7-azaspiro[3.5]nonan-7-yl)ethyl)amino)-3-nitrophenyl)sulfonyl)-4-(4-(1-chloro-6,7,8,9-tetrahydro-5H-benzo[7]annulen-5-yl)piperazin-1-yl)benzamide], the pIC50 at BCL-2 and at BCL-XL was above 7.70 each time. For the same molecule, the GI50 in the assay with DOHH2 cells lay in the range of 50 to 500 nM.

On to `CN1CC2CC1CN2CCNc1ccc(S(=O)(=O)NC(=O)c2ccc(N3CCN(C4CCCCc5c(Cl)cccc54)CC3)cc2Oc2cnc3[nH]ccc3c2)cc1[N+](=O)[O-]` (stereo not drawn) [Compound 43, 2-((1H-pyrrolo[2,3-b]pyridin-5-yl)oxy)-4-(4-(1-chloro-6,7,8,9-tetrahydro-5H-benzo[7]annulen-5-yl)piperazin-1-yl)-N-((4-((2-(5-methyl-2,5-diazabicyclo[2.2.1]heptan-2-yl)ethyl)amino)-3-nitrophenyl)sulfonyl)benzamide], for which the pIC50 at BCL-2 and on BCL-XL was above 7.70 each time. In the assay with DOHH2 cells, this molecule registered a GI50 of 50 to 500 nM.

With `CN1CC2CC1CC2CNc1ccc(S(=O)(=O)NC(=O)c2ccc(N3CCN(C4CCCCc5c(Cl)cccc54)CC3)cc2Oc2cnc3[nH]ccc3c2)cc1[N+](=O)[O-]` (stereo not drawn) [Compound 44, 2-((1H-pyrrolo[2,3-b]pyridin-5-yl)oxy)-4-(4-(1-chloro-6,7,8,9-tetrahydro-5H-benzo[7]annulen-5-yl)piperazin-1-yl)-N-((4-(((2-methyl-2-azabicyclo[2.2.1]heptan-5-yl)methyl)amino)-3-nitrophenyl)sulfonyl)benzamide], the pIC50 at BCL-2 and at BCL-XL was above 7.70 each time. In the assay on DOHH2 cells, this molecule came in with a GI50 of 50 to 500 nM.

For `CN1CCc2ccccc2C(N2CCN(c3ccc(C(=O)NS(=O)(=O)c4ccc(NCC5CCOCC5)c([N+](=O)[O-])c4)c(Oc4cnc5[nH]ccc5c4)c3)CC2)C1=O` (stereo not drawn) [Compound 45, 2-((1H-pyrrolo[2,3-b]pyridin-5-yl)oxy)-4-(4-(3-methyl-2-oxo-2,3,4,5-tetrahydro-1H-benzo[d]azepin-1-yl)piperazin-1-yl)-N-((3-nitro-4-(((tetrahydro-2H-pyran-4-yl)methyl)amino)phenyl)sulfonyl)benzamide], the pIC50 on BCL-2 is above 7.70; on BCL-XL, 5.70 to 6.70. Besides, the GI50 in the assay with DOHH2 cells lay within 500 to 5000 nM.

As to `O=C(NS(=O)(=O)c1ccc(NCC2CC3(COC3)C2)c([N+](=O)[O-])c1)c1ccc(N2CCN(C3CCCCc4c(Cl)cccc43)CC2)cc1Oc1cnc2[nH]ccc2c1` (stereo not drawn) [Compound 46, 2-((1H-pyrrolo[2,3-b]pyridin-5-yl)oxy)-N-((4-(((2-oxaspiro[3.3]heptan-6-yl)methyl)amino)-3-nitrophenyl)sulfonyl)-4-(4-(1-chloro-6,7,8,9-tetrahydro-5H-benzo[7]annulen-5-yl)piperazin-1-yl)benzamide], the pIC50 is above 7.70 on BCL-2 and 6.70 to 7.70 at BCL-XL. This molecule came in with a GI50 with DOHH2 cells below 50 nM.

Consider `O=C(NS(=O)(=O)c1ccc(NCC2CCOCC2)c([N+](=O)[O-])c1)c1ccc(N2CCN(C3CCCCc4c(C5=CCCC5)cccc43)CC2)cc1Oc1cnc2[nH]ccc2c1` (stereo not drawn) [Compound 47, 2-((1H-pyrrolo[2,3-b]pyridin-5-yl)oxy)-4-(4-(1-(cyclopent-1-en-1-yl)-6,7,8,9-tetrahydro-5H-benzo[7]annulen-5-yl)piperazin-1-yl)-N-((3-nitro-4-(((tetrahydro-2H-pyran-4-yl)methyl)amino)phenyl)sulfonyl)benzamide], for which the pIC50 was 6.70 to 7.70 at BCL-2 and below 5.70 on BCL-XL. This molecule came in with a GI50 with DOHH2 cells above 5000 nM.

For `O=C(NS(=O)(=O)c1ccc(NCC2CCOCC2)c([N+](=O)[O-])c1)c1ccc(N2CCN(C3CCCCc4c(-c5cccnc5)cccc43)CC2)cc1Oc1cnc2[nH]ccc2c1` (stereo not drawn) [Compound 49, 2-((1H-pyrrolo[2,3-b]pyridin-5-yl)oxy)-N-((3-nitro-4-(((tetrahydro-2H-pyran-4-yl)methyl)amino)phenyl)sulfonyl)-4-(4-(1-(pyridin-3-yl)-6,7,8,9-tetrahydro-5H-benzo[7]annulen-5-yl)piperazin-1-yl)benzamide], the results for the pIC50 on BCL-2 and at BCL-XL were above 7.70 and 5.70 to 6.70, respectively. The molecule further displayed a concentration for 50% growth inhibition (GI50) in the assay with DOHH2 cells of 500 to 5000 nM.

With `C=C(C)c1cccc2c1CCCCC2N1CCN(c2ccc(C(=O)NS(=O)(=O)c3ccc(NCC4CCOCC4)c([N+](=O)[O-])c3)c(Oc3cnc4[nH]ccc4c3)c2)CC1` (stereo not drawn) [Compound 50, 2-((1H-pyrrolo[2,3-b]pyridin-5-yl)oxy)-N-((3-nitro-4-(((tetrahydro-2H-pyran-4-yl)methyl)amino)phenyl)sulfonyl)-4-(4-(1-(prop-1-en-2-yl)-6,7,8,9-tetrahydro-5H-benzo[7]annulen-5-yl)piperazin-1-yl)benzamide], the negative logarithm of the IC50 (pIC50) was above 7.70 on BCL-2 and 5.70 to 6.70 on BCL-XL. In the assay with DOHH2 cells, this molecule had a GI50 of 50 to 500 nM.

For `CC(C)c1cccc2c1CCCCC2N1CCN(c2ccc(C(=O)NS(=O)(=O)c3ccc(NCC4CCOCC4)c([N+](=O)[O-])c3)c(Oc3cnc4[nH]ccc4c3)c2)CC1` (stereo not drawn) [Compound 51, 2-((1H-pyrrolo[2,3-b]pyridin-5-yl)oxy)-4-(4-(1-isopropyl-6,7,8,9-tetrahydro-5H-benzo[7]annulen-5-yl)piperazin-1-yl)-N-((3-nitro-4-(((tetrahydro-2H-pyran-4-yl)methyl)amino)phenyl)sulfonyl)benzamide], the pIC50 at BCL-2 is above 7.70; on BCL-XL it was 5.70 to 6.70. In the assay with DOHH2 cells, this molecule came in with a concentration for 50% growth inhibition (GI50) of 500 to 5000 nM.

For `O=C(NS(=O)(=O)c1ccc(NCC2CCOCC2)c([N+](=O)[O-])c1)c1ccc(N2CCN(C3CCCCc4c(-c5cn[nH]c5)cccc43)CC2)cc1Oc1cnc2[nH]ccc2c1` (stereo not drawn) [Compound 52, 4-(4-(1-(1H-pyrazol-4-yl)-6,7,8,9-tetrahydro-5H-benzo[7]annulen-5-yl)piperazin-1-yl)-2-((1H-pyrrolo[2,3-b]pyridin-5-yl)oxy)-N-((3-nitro-4-(((tetrahydro-2H-pyran-4-yl)methyl)amino)phenyl)sulfonyl)benzamide], the pIC50 on BCL-2 is 6.70 to 7.70; on BCL-XL, below 5.70. Further, the GI50 with DOHH2 cells is above 5000 nM.
